The text below walks through data of PubChem BioAssay (NCI).

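Cultured in 96-well plates, cells were exposed to test compound for 48 hours across five concentrations. GI50 marks 50% less growth. TGI marks complete inhibition of growth.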

Test systems include K-562 leukemia; MDA-MB-435; A549 NSCLC; EKVX NSCLC; RPMI-8226 leukemia; RXF 393 renal; SK-MEL-5 melanoma; LOX IMVI melanoma; M14 melanoma; HOP-92 NSCLC.
Experiment in all cases: growth of human tumour cells (NCI), 48 h

Consider `O=C1Cc2cc(CCN3CCNCC3)c(Cl)cc2N1`, for which the GI50 in the assay with K-562 leukemia was 6.24 µM; in the assay on MDA-MB-435, 2.77 µM; with A549 NSCLC, 6.85 µM; in the assay with EKVX NSCLC, 0.358 µM; in the assay on RPMI-8226 leukemia it was 6.03 µM; in the assay on RXF 393 renal, 6.89 µM. The GI50 was 5.33 µM with SK-MEL-5 melanoma, over 100 µM with LOX IMVI melanoma and 3.02 µM with M14 melanoma. Besides, the TGI was over 100 µM in the assay with K-562 leukemia; 14.2 µM with MDA-MB-435; over 100 µM with A549 NSCLC; over 100 µM with EKVX NSCLC; over 100 µM in the assay on RPMI-8226 leukemia; over 100 µM in the assay with RXF 393 renal. In addition, the TGI with SK-MEL-5 melanoma was over 100 µM; in the assay with LOX IMVI melanoma, over 100 µM; in the assay on M14 melanoma it was 26.5 µM.
`CN(C)N=Nc1ccc(S(N)(=O)=O)cc1`: the TGI with K-562 leukemia, in the assay on HOP-92 NSCLC, with A549 NSCLC, in the assay on EKVX NSCLC, in the assay on RPMI-8226 leukemia and with SK-MEL-5 melanoma was over 100 µM each time. For the same compound, the TGI in the assay with LOX IMVI melanoma and in the assay with M14 melanoma was over 100 µM throughout.
Regarding `CSc1nnc(C(C#N)C#N)nn1`, the TGI with K-562 leukemia, in the assay on HOP-92 NSCLC, in the assay on A549 NSCLC, in the assay on EKVX NSCLC, with RPMI-8226 leukemia and in the assay with RXF 393 renal was over 100 µM in each case. The TGI in the assay on SK-MEL-5 melanoma, in the assay on LOX IMVI melanoma and in the assay on M14 melanoma was over 100 µM in each case.
In the case of `CC(=O)C1C(=O)C(=O)N(CCN2C(=O)C(=O)C(C(C)=O)C2=O)C1=O` (stereo unspecified), the TGI with K-562 leukemia, in the assay on HOP-92 NSCLC, in the assay with EKVX NSCLC, in the assay with RPMI-8226 leukemia, in the assay with RXF 393 renal and with SK-MEL-5 melanoma was over 100 µM in each case. The TGI in the assay on LOX IMVI melanoma and with M14 melanoma was over 100 µM each time.
In the case of `CCOC(=O)C1C(=O)CC(=O)C2CCCCC21` (stereo unspecified), the TGI in the assay with K-562 leukemia, in the assay with HOP-92 NSCLC, with A549 NSCLC, in the assay on EKVX NSCLC, in the assay on RPMI-8226 leukemia and with RXF 393 renal was over 100 µM each time. In addition, the TGI in the assay with SK-MEL-5 melanoma, in the assay with LOX IMVI melanoma and in the assay with M14 melanoma was over 100 µM each time.
For `COc1ccc2c(c1)[n+]([O-])c(-c1ccccc1Cl)c(N)[n+]2[O-]`, the TGI with K-562 leukemia, in the assay on HOP-92 NSCLC, with A549 NSCLC, with EKVX NSCLC, in the assay on RPMI-8226 leukemia and with SK-MEL-5 melanoma was over 100 µM throughout. In the assay with M14 melanoma, this compound showed a TGI of over 100 µM.
With `CCN(CC)c1c(C)nnn1C1OC(COC(C)=O)C(OC(C)=O)C(OC(C)=O)C1OC(C)=O` (stereo unspecified), the TGI is over 100 µM with K-562 leukemia; over 100 µM with HOP-92 NSCLC; over 100 µM with A549 NSCLC; over 100 µM with EKVX NSCLC; 78.3 µM with RPMI-8226 leukemia; over 100 µM with SK-MEL-5 melanoma. In addition, the TGI with M14 melanoma was over 100 µM.
For `COc1cc(O)c(C(=O)/C=C/c2ccc(OC)c(OCc3ccccc3)c2)c(OC)c1`, the TGI in the assay with K-562 leukemia, in the assay with HOP-92 NSCLC, with A549 NSCLC, with EKVX NSCLC, in the assay with RPMI-8226 leukemia and in the assay with RXF 393 renal was over 100 µM throughout. The TGI in the assay with SK-MEL-5 melanoma, in the assay with LOX IMVI melanoma and with M14 melanoma was over 100 µM in each case.
As for `O=C(CCc1ccccc1)CC1OC(=O)C(Cl)=C1Cl` (stereo unspecified), the TGI is 88 µM with K-562 leukemia; 41.1 µM with HOP-92 NSCLC; over 100 µM in the assay on A549 NSCLC; 66.1 µM in the assay on EKVX NSCLC; over 100 µM with RPMI-8226 leukemia; 59.8 µM in the assay with RXF 393 renal. The TGI with SK-MEL-5 melanoma came to 47 µM; in the assay on LOX IMVI melanoma, 40.2 µM; in the assay with M14 melanoma, 31 µM.
In the case of `Cc1[nH]c2cc([N+](=O)[O-])ccc2c1[N+](=O)[O-]`, the TGI is over 100 µM with K-562 leukemia; 23.8 µM in the assay with HOP-92 NSCLC; 69.6 µM with A549 NSCLC; 49.6 µM in the assay on EKVX NSCLC; 58.4 µM in the assay with RPMI-8226 leukemia; 54.1 µM in the assay on RXF 393 renal. Further, the values for the TGI in the assay with SK-MEL-5 melanoma, with LOX IMVI melanoma and in the assay on M14 melanoma were 27.6 µM, 76.2 µM and 44 µM, respectively.
On to `CN(C)c1ccc2[nH]c3c(C(N)=O)cc(=O)c(=O)c=3oc2c1`, for which the GI50 with K-562 leukemia was 0.358 µM; in the assay on HOP-92 NSCLC, 1.72 µM; in the assay on A549 NSCLC it was 3.19 µM; in the assay with EKVX NSCLC it was 3.36 µM; in the assay on RPMI-8226 leukemia it was 0.502 µM; with RXF 393 renal, 1.89 µM. Moreover, the values for the GI50 in the assay with SK-MEL-5 melanoma, in the assay on LOX IMVI melanoma and in the assay on M14 melanoma were 1.8 µM, 0.334 µM and 2.93 µM, respectively. In addition, the TGI in the assay on K-562 leukemia was over 100 µM; in the assay on HOP-92 NSCLC, 8.58 µM; in the assay on A549 NSCLC it was over 100 µM; with EKVX NSCLC, 61.6 µM; with RPMI-8226 leukemia, over 100 µM; in the assay on RXF 393 renal, 7.24 µM. Also, the TGI was 3.55 µM with SK-MEL-5 melanoma, over 100 µM with LOX IMVI melanoma and over 100 µM in the assay on M14 melanoma.
As for `Cc1ccc(S(=O)(=O)NNS(C)(=O)=O)cc1`, the TGI in the assay with K-562 leukemia, with A549 NSCLC, in the assay with EKVX NSCLC, with RPMI-8226 leukemia, with RXF 393 renal and with SK-MEL-5 melanoma was over 100 µM in each case. The TGI with LOX IMVI melanoma and with M14 melanoma was over 100 µM in each case.
As for `N#Cc1ccc(C2SCc3nc4ccccc4n32)cc1` (stereo unspecified), the TGI in the assay with K-562 leukemia, in the assay with A549 NSCLC, with EKVX NSCLC, in the assay on RPMI-8226 leukemia, in the assay with RXF 393 renal and in the assay with SK-MEL-5 melanoma was over 100 µM throughout. For the same compound, the TGI in the assay on M14 melanoma was over 100 µM.
